Measurements as given in US20100092402A1, “TREATMENT OF RESPIRATORY DISEASE” (Mucokinetica Ltd., priority 2007, published 2010).

Assays:
[1] = test system: nasal epithelium; test: Mucus host-defence responses during nasal perfusion; format: in vivo, human
From the text: Perfusion of the nasal epithelium with low chloride Ringer/HEPES buffer imposes a chemical gradient for chloride secretion, and therefore also provides a drive for fluid secretion.
Mucus host-defence episodes were scored 1 to 3 on the basis of the number of features and the magnitude of the responses observed. FIG. 10 reports the score of the episodes recorded, and indicates the time of their occurrence in the perfusion protocol.

[2] = test system: amiloride-sensitive (sodium-dependent) component of nasal PD; test: Nasal PD measurement during perfusion of human nasal epithelium; format: in vivo; settings: for average percent of maximum PD change in response to 10^−5 M-amiloride: 4 experiments, before perfusion 94% and 80%
Experimental: The method of measurement of nasal PD was an adaptation of that described by Standaert et al. (2004).
Ringer/HEPES buffer solution was prepared containing 148 mM-NaCl, 4.05 mM-KCl, 1.2 mM-CaCl2, 1.2 mM-MgCl2, 2.4 mM-K2HPO4, 0.4 mM-KH2PO4, 10 mM-HEPES, and adjusted to pH 7.4. Low chloride Ringer/HEPES buffer solution was prepared by replacing NaCl with 148 mM-Na gluconate in the Ringer solution components.
Agar electrodes were prepared with 3.7% agarose dissolved in Ringer/HEPES buffer pH 7.4. The reference electrode was placed and taped in contact with a small area on the forearm where the epidermis had been removed by gentle abrasion. A dual lumen nasal recording electrode was prepared using a lm length of soft plastic tubing 2.4 mm diameter, into which 1 mm diameter polythene tubing was inserted through the wall and along the lumen for 15 cm from one end. The 2.4 mm diameter tubing was filled with 3.7% agarose dissolved in Ringer/HEPES buffer pH 7.4. The 1 mm diameter tubing was used for perfusion of buffer solutions and drugs to the nasal epithelium. The ends of the agar electrodes were each placed in contact with a calomel half-cell in 3 M-KCl solution. Voltages were measured by connecting the calomel electrodes to a high impedance voltmeter (Keithley 617 programmable electrometer). Output from the voltmeter was recorded by connection to a Biopac MP100 data aquisition unit and PC running Acqknowledge III data acquisition software.
Nasal PD was recorded via the recording electrode placed in contact with the nasal epithelium approximately 4 cm inside the nostril. The nasal epithelium was perfused according to the following schedule and nasal PD was recorded continuously.
1. Ringer/HEPES buffer was perfused at 0.5 ml/min for 5 min, and starting baseline PD was recorded.
2. Perfusion was then switched to low chloride Ringer/HEPES buffer pH 7.4 for 30 min during which time initial hyperpolarisation of the epithelium occurred.
3. The nasal epithelium was then perfused with 10^−5 M-amiloride in low chloride Ringer/HEPES buffer pH 7.4 for 10 min. Measurement of the amiloride-sensitive (sodium-dependent) component of nasal PD was then made by measuring the difference between the average PD recorded over the 2 min before perfusion with amiloride and the average PD recorded in the period 4 to 6 min after perfusion with amiloride.
4. Amiloride was washed away from the nasal epithelium by perfusion with low chloride Ringer/HEPES buffer pH 7.4 for 30 min.
5. Steps 3 and 4 were then repeated twice more.
6. The nasal epithelium was then perfused with 3 μM 6-amidino-2-napthyl 4-guanidinobenzoate in low chloride Ringer/HEPES buffer pH 7.4 for 60 min.
7. Steps 3 and 4 were then repeated a further twice, followed by either a period of administration of amiloride (3 experiments), or a final repetition of both steps 3 and 4 (1 experiment).
Over the 5 h time course of each experiment nasal PD drifted and oscillated. […] Changes in nasal PD caused by perfusion of amiloride were calculated as the difference between the mean PD recorded in the 2 min period before perfusion with amiloride and the mean PD recorded in the plateau period 4 to 6 min after start of perfusion with amiloride. Within each experiment the change in nasal PD at each period of application of amiloride was expressed as a percentage of the maximum change observed in the experiment.

[3] = test system: prostasin; settings: treatment for 24 h; cited from earlier work
[4] = test system: cortical collecting duct of the rabbit kidney; settings: Muto et al. 1993, cited from earlier work
[5] = test system: prostasin; settings: rats infused i.v. for 24h; cited from earlier work

**Q.** With N=C(N)c1ccc2cc(OC(=O)c3ccc(N=C(N)N)cc3)ccc2c1 [6-amidino-2-napthyl 4-guanidinobenzoate] as the compound, how does the “scores for episodes of mucus host-defence response (scored 1 to 3)” value ([1]; perfusion of 3.10^−6 M in low chloride Ringer/HEPES buffer) read?
**A.** Highest scores

**Q.** And the mucus host-defence responses ([1]; perfusion with 3.10^−6 M in low chloride Ringer/HEPES buffer)?
**A.** stimulated episodes of mucus host-defence responses

**Q.** And the “time following perfusion for which amiloride-sensitive component of nasal PD was reduced” value ([2]; 3.10^−6 M in low chloride Ringer/HEPES buffer pH 7.4 for 60 min)?
**A.** up to 80 min

**Q.** What about the “average percent of maximum PD change in response to 10^−5 M-amiloride” value (“average percent of maximum PD change” below) ([2]; 40 min after perfusion of 3.10^−6 M for 60 min) of the same compound?
**A.** 29%

**Q.** What about the “average percent of maximum PD change” value ([2]; 80 min after perfusion of 3.10^−6 M for 60 min) of the same compound?
**A.** 55%

**Q.** And the “average percent of maximum PD change” value ([2]; immediately following 60 min perfusion of 3.10^−6 M)?
**A.** 49%

**Q.** And the “prostasin secretion into culture medium” value [3]?
**A.** reduced prostasin secretion

**Q.** What about the “effect on the rabbit kidney model” value ([4]; 10^−5 M) of the same compound?
**A.** without effect

**Q.** And the “change in transepithelial voltage, as share of that achievable by 5.10^−6 M amiloride” value ([4]; perfused at 10^−4 M)?
**A.** 40%

**Q.** What about the “onset of change in transepithelial voltage” value ([4]; perfusion of 10^−4 M) of the same compound?
**A.** ≤ 30 s

**Q.** And the “levels of prostasin secreted in the urine” value [5]?
**A.** reduced levels of prostasin
